The record followed here is patent US20070254891A1, “Crystalline forms of 4-(2-fluorophenyl)-6-methyl-2-(piperazin-1-yl)thieno[2,3-d]pyrimidine” (Dynogen Pharmaceuticals, Inc., priority 2006, published 2007).

The data set in a line: Accelerated light stability study (Atlas Suntest CPS+ light box). It is filed as physicochemical. How it is done: Purity analysis was performed on an Agilent HP1100 system equipped with a diode array detector and using Chemstation V9 software. Gradient, Reverse Phase methods (duration approximately 40 minutes) were used in a HPLC1 system. A Thermo-Electron Corporation HyPurity C18 5 um 150×4.6 mm column was used at 25° C. Test samples were made-up of 0.2 mg/ml of the compound in acetonitrile:water (1:1 v/v). 10 μl of sample was injected into the column. The flow rate through the column was 1 ml/min and the detection wavelength, bandwidth was 254,8 nm. Phase A was 0.1% phosphoric acid in water and Phase B was 0.1% phosphoric acid in acetonitrile. The mobile phase timetable is shown below in Table 2.
Accelerated Light stability experiments were conducted using an Atlas Suntest CPS+light box. The light exposure was set to 550 W/m^2 and the run time was set to 168 hours (1 week). The chamber temperature and black standard temperature (which indicates how hot the test samples will become) were set to 25° C. The actual temperature in the sample chamber was 40° C.
Form I and II were assessed using an Atlas Suntest CPS+ light box to determine the effect of their exposure to light over a period of 168 hours (1 week). The light exposure was set to 550 W/M^2. Samples were weighed into either open weighing boats covered by pyrex glass beakers, glass vials with open tops (no lid), or glass vials covered in Aluminum foil. In all instances, the material was spread out into an even, thin layer.

As to `Cc1cc2c(-c3ccccc3F)nc(N3CCNCC3)nc2s1.Cl` [Form II, 4-(2-fluorophenyl)-6-methyl-2-(piperazin-1-yl)thieno[2,3-d]pyrimidine hydrochloride], the “Rate of degradation relative to Form I” value (1 week at elevated light levels) is reported as “about half the rate of Form I”. In addition, the “Purity after 1 week light exposure” value reads like this: (20 ml glass vial covered in Al foil with loose lid (control)) 99.9; (20 ml glass vial, 550 W/m^2, 168 hours, hydrochloride) 90.7; (open weighing boat, 550 W/m^2, 168 hours, hydrochloride) 88.3. For the same compound, for the setting “one week, FIGS. 6A/6B (open weighing boats), hydrochloride”, the “HPLC purity after accelerated light study” value is recorded as 88.3%.
